Molecular target: α7 nAChR subtype (Rattus norvegicus, UniProt Q05941)
Format: binding
Conditions: read-out: KD of radioligand

Chain of α7 nAChR subtype (Q05941 23-502 limits assumed): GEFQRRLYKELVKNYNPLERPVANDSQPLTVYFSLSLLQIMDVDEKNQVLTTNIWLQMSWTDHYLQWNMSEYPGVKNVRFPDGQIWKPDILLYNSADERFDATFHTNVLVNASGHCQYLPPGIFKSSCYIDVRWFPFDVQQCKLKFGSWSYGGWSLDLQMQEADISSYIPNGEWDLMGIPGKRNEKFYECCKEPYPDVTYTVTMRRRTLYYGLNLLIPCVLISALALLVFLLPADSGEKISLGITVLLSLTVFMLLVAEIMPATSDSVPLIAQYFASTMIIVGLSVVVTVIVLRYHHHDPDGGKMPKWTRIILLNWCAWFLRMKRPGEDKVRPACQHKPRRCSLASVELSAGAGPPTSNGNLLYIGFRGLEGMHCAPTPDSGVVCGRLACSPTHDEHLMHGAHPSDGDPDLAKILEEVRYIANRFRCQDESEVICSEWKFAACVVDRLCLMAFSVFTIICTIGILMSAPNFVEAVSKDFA

[^125I]-α-Bungarotoxin [^125I-α-BTX] gave a Kd of 1.67 nM.

From patent US6703502B2 (priority 1997, dated 2004)
